Measurements published in patent US20250313533A1, “QUINOLINE CARBOXYLIC ACID ESTER COMPOUND AND PREPARATION METHOD AND USE THEREOF” (priority 2019, published 2025).

How the values were obtained:
[1] = system: pathogenic bacteria causing stem rot in sweet potatoes; assay: In vitro bactericidal activity, stem rot in sweet potatoes; type: cell-based, dikia; details: read-out: inhibitory rate; for inhibition at 1 ppm: dosage 1 ppm; for inhibition at 5 ppm: dosage 5 ppm
[2] = system: pathogenic bacteria causing bacterial wilt in cassava; assay: organism not typed; type: cell-based; details: read-out: inhibitory rate
[3] = system: pathogenic bacteria causing bacterial wilt in tobacco; assay: whole plant or invertebrate; type: cell-based, ralstonia; details: read-out: inhibitory rate
[4] = system: pathogenic bacteria causing black rot in Chinese cabbages; assay: In vitro bactericidal activity, black rot in Chinese cabbages; type: cell-based, xanthomonas; details: Xanthomonas, read-out: inhibitory rate; for inhibition at 1 ppm: dosage 1 ppm; for inhibition at 5 ppm: dosage 5 ppm
[5] = system: fruit blotch in watermelons; assay: whole plant or invertebrate; details: read-out: efficacy against fruit blotch in watermelons
[6] = system: pathogenic bacteria causing bacterial blight in rice; assay: whole plant or invertebrate; type: cell-based, xanthomonas; details: read-out: inhibitory rate
black shank in potatoes = assay: Living crops in vivo protective activity, potatoes (root irrigation); details: Solanum tuberosum, read-out: efficacy against black shank in potatoes; for pest or weed control at 5 ppm: dosage 5 ppm; for pest or weed control at 10 ppm: dosage 10 ppm
Method: Root irrigation was carried out on the potatoes for tests according to the designed concentration of the agents. The dosage for each plant was 200 mL and was kept consistent (also for the control). The black shank bacteria were inoculated on the second day after the application. The results were investigated according to the disease condition.

[7] = system: bacterial wilt in tobacco; assay: whole plant or invertebrate; details: Nicotiana tabacum, read-out: efficacy against bacterial wilt in tobacco
[8] = system: pathogenic bacteria causing bacterial angular leaf spot in cucumbers; assay: In vitro bactericidal activity, bacterial angular leaf spot in cucumbers; type: cell-based, pseudomonas; details: read-out: inhibitory rate; for inhibition at 1 ppm: dosage 1 ppm; for inhibition at 5 ppm: dosage 5 ppm
[9] = system: pathogenic bacteria causing fire blight in pears; assay: In vitro bactericidal activity, fire blight in pears; type: cell-based, erwinia; details: Erwinia, read-out: inhibitory rate; for inhibition at 1 ppm: dosage 1 ppm; for inhibition at 5 ppm: dosage 5 ppm
cucumber seedlings = assay: Safety for plant growth after application; type: in vivo; details: dosage 200 ppm
Procedure, shortened: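 Compound applied to indoor cucumber seedlings in pots. Growth then scored: height increase rate, leaf chlorophyll, leaf area.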

[10] = system: stem rot in sweet potatoes; assay: whole plant or invertebrate; details: read-out: efficacy against stem rot in sweet potatoes
[11] = system: indoor potted cucumber seedlings; assay: Effect of improving growth and development of crops; type: in vivo; set-up: Rate of growth rate increase (%): concentration or dose not given beside the values; details: versus blank control; for Rate of chlorophyll content increase (%) / Rate of leaf area increase (%): 14 days after application; for Rate of growth rate increase (%): plant height 14 days after application; for Rate of leaf area increase (%): second leaf
Procedure, shortened: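 SPAD chlorophyll, plant height and second-leaf dimensions measured at application and 14 d later; leaf area from length (base to tip) and width (upper shoulder).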

[12] = system: soft rot in Chinese cabbages; assay: whole plant or invertebrate; details: 48 h, read-out: efficacy against soft rot in Chinese cabbages
bacterial blight in rice = assay: whole plant or invertebrate; details: Oryza sativa, read-out: efficacy against bacterial blight in rice
[13] = system: pathogenic bacteria causing black shank in potatoes; assay: In vitro bactericidal activity, black shank in potatoes; type: cell-based; details: read-out: inhibitory rate; for inhibition at 1 ppm: dosage 1 ppm; for inhibition at 5 ppm: dosage 5 ppm
[14] = system: pathogenic bacteria causing fruit blotch in watermelons; assay: In vitro bactericidal activity, fruit blotch in watermelons; type: cell-based, acidovorax; details: read-out: inhibitory rate; for inhibition at 1 ppm: dosage 1 ppm; for inhibition at 5 ppm: dosage 5 ppm

Row | SMILES | inhibition at 1 ppm [1] | inhibition at 5 ppm [1] | inhibition at 1 ppm [2] | inhibition at 5 ppm [2] | inhibition at 1 ppm [3] | inhibition at 5 ppm [3] | inhibition at 1 ppm [4] | inhibition at 5 ppm [4] | pest or weed control at 5 ppm [5] | pest or weed control at 10 ppm [5] | inhibition at 1 ppm [6] | inhibition at 5 ppm [6] | pest or weed control at 5 ppm (black shank in potatoes) | pest or weed control at 10 ppm (black shank in potatoes) | pest or weed control at 5 ppm [7] | pest or weed control at 10 ppm [7] | inhibition at 1 ppm [8] | inhibition at 5 ppm [8] | inhibition at 1 ppm [9] | inhibition at 5 ppm [9] | also measured
1 | CCSc1cc2c(cc1F)c(=O)c(C(=O)OCCOC)cn2C1CC1 [Compound 382] | ≥ 90% | ≥ 90% | ≥ 90% | ≥ 90% | ≥ 90% | ≥ 90% | ≥ 90% | ≥ 90% | ≥ 90% | ≥ 90% | ≥ 90% | ≥ 90% | ≥ 90% | ≥ 90% | ≥ 90% | ≥ 90% | ≥ 90% | ≥ 90% | ≥ 90% | ≥ 90% | safety for plant growth (discoloration, necrosis, wilt, malformation) (cucumber seedlings): safe for plant growth; pest or weed control at 5 ppm [10]: ≥ 90%; pest or weed control at 10 ppm [10]: ≥ 90%; Rate of chlorophyll content increase (%) [11]: 13%; Rate of growth rate increase (%) [11]: 10%; Rate of leaf area increase (%) [11]: 10%; pest or weed control at 5 ppm [12]: ≥ 90%; pest or weed control at 10 ppm [12]: ≥ 90%; pest or weed control at 5 ppm (bacterial blight in rice): ≥ 90%; pest or weed control at 10 ppm (bacterial blight in rice): ≥ 90%; inhibition at 1 ppm [13]: ≥ 90%; inhibition at 5 ppm [13]: ≥ 90%; inhibition at 1 ppm [14]: ≥ 90%; inhibition at 5 ppm [14]: ≥ 90%
2 | COCCOC(=O)c1cn(C2CC2)c2cc(SCC(F)(F)F)c(F)cc2c1=O [Compound 390] | ≥ 90% | ≥ 90% | ≥ 90% | ≥ 90% | ≥ 90% | ≥ 90% | ≥ 90% | ≥ 90% | ≥ 90% | ≥ 90% | ≥ 90% | ≥ 90% | ≥ 90% | ≥ 90% | ≥ 90% | ≥ 90% | ≥ 90% | ≥ 90% | ≥ 90% | ≥ 90% | safety for plant growth (discoloration, necrosis, wilt, malformation) (cucumber seedlings): safe for plant growth; pest or weed control at 5 ppm [10]: ≥ 90%; pest or weed control at 10 ppm [10]: ≥ 90%; Rate of chlorophyll content increase (%) [11]: 17%; Rate of growth rate increase (%) [11]: 13%; Rate of leaf area increase (%) [11]: 15%; pest or weed control at 5 ppm [12]: ≥ 90%; pest or weed control at 10 ppm [12]: ≥ 90%; pest or weed control at 5 ppm (bacterial blight in rice): ≥ 90%; pest or weed control at 10 ppm (bacterial blight in rice): ≥ 90%; inhibition at 1 ppm [13]: ≥ 90%; inhibition at 5 ppm [13]: ≥ 90%; inhibition at 1 ppm [14]: ≥ 90%; inhibition at 5 ppm [14]: ≥ 90%
3 | CNc1cc2c(cc1F)c(=O)c(C(=O)OCCO)cn2C1CC1 [Compound 400] | ≥ 90% | ≥ 90% | ≥ 90% | ≥ 90% | ≥ 90% | ≥ 90% | ≥ 90% | ≥ 90% | ≥ 90% | ≥ 90% | ≥ 90% | ≥ 90% | ≥ 90% | ≥ 90% | ≥ 90% | ≥ 90% | ≥ 90% | ≥ 90% | ≥ 90% | ≥ 90% | safety for plant growth (discoloration, necrosis, wilt, malformation) (cucumber seedlings): safe for plant growth; pest or weed control at 5 ppm [10]: ≥ 90%; pest or weed control at 10 ppm [10]: ≥ 90%; Rate of chlorophyll content increase (%) [11]: 17%; Rate of growth rate increase (%) [11]: 13%; Rate of leaf area increase (%) [11]: 18%; pest or weed control at 5 ppm [12]: ≥ 90%; pest or weed control at 10 ppm [12]: ≥ 90%; pest or weed control at 5 ppm (bacterial blight in rice): ≥ 90%; pest or weed control at 10 ppm (bacterial blight in rice): ≥ 90%; inhibition at 1 ppm [13]: ≥ 90%; inhibition at 5 ppm [13]: ≥ 90%; inhibition at 1 ppm [14]: ≥ 90%; inhibition at 5 ppm [14]: ≥ 90%
4 | CNc1cc2c(cc1F)c(=O)c(C(=O)OCCOC)cn2C1CC1 [Compound 401] | ≥ 90% | ≥ 90% | ≥ 90% | ≥ 90% | ≥ 90% | ≥ 90% | ≥ 90% | ≥ 90% | ≥ 90% | ≥ 90% | ≥ 90% | ≥ 90% | ≥ 90% | ≥ 90% | ≥ 90% | ≥ 90% | ≥ 90% | ≥ 90% | ≥ 90% | ≥ 90% | safety for plant growth (discoloration, necrosis, wilt, malformation) (cucumber seedlings): safe for plant growth; pest or weed control at 5 ppm [10]: ≥ 90%; pest or weed control at 10 ppm [10]: ≥ 90%; Rate of chlorophyll content increase (%) [11]: 13%; Rate of growth rate increase (%) [11]: 10%; Rate of leaf area increase (%) [11]: 10%; pest or weed control at 5 ppm [12]: ≥ 90%; pest or weed control at 10 ppm [12]: ≥ 90%; pest or weed control at 5 ppm (bacterial blight in rice): ≥ 90%; pest or weed control at 10 ppm (bacterial blight in rice): ≥ 90%; inhibition at 1 ppm [13]: ≥ 90%; inhibition at 5 ppm [13]: ≥ 90%; inhibition at 1 ppm [14]: ≥ 90%; inhibition at 5 ppm [14]: ≥ 90%
5 | CCNc1cc2c(cc1F)c(=O)c(C(=O)OCCO)cn2C1CC1 [Compound 407] | ≥ 90% | ≥ 90% | ≥ 90% | ≥ 90% | ≥ 90% | ≥ 90% | ≥ 90% | ≥ 90% | ≥ 90% | ≥ 90% | ≥ 90% | ≥ 90% | ≥ 90% | ≥ 90% | ≥ 90% | ≥ 90% | ≥ 90% | ≥ 90% | ≥ 90% | ≥ 90% | safety for plant growth (discoloration, necrosis, wilt, malformation) (cucumber seedlings): safe for plant growth; pest or weed control at 5 ppm [10]: ≥ 90%; pest or weed control at 10 ppm [10]: ≥ 90%; Rate of chlorophyll content increase (%) [11]: 15%; Rate of growth rate increase (%) [11]: 13%; Rate of leaf area increase (%) [11]: 11%; pest or weed control at 5 ppm [12]: ≥ 90%; pest or weed control at 10 ppm [12]: ≥ 90%; pest or weed control at 5 ppm (bacterial blight in rice): ≥ 90%; pest or weed control at 10 ppm (bacterial blight in rice): ≥ 90%; inhibition at 1 ppm [13]: ≥ 90%; inhibition at 5 ppm [13]: ≥ 90%; inhibition at 1 ppm [14]: ≥ 90%; inhibition at 5 ppm [14]: ≥ 90%
6 | CCNc1cc2c(cc1F)c(=O)c(C(=O)OCCOC)cn2C1CC1 [Compound 408] | ≥ 90% | ≥ 90% | ≥ 90% | ≥ 90% | ≥ 90% | ≥ 90% | ≥ 90% | ≥ 90% | ≥ 90% | ≥ 90% | ≥ 90% | ≥ 90% | ≥ 90% | ≥ 90% | ≥ 90% | ≥ 90% | ≥ 90% | ≥ 90% | ≥ 90% | ≥ 90% | safety for plant growth (discoloration, necrosis, wilt, malformation) (cucumber seedlings): safe for plant growth; pest or weed control at 5 ppm [10]: ≥ 90%; pest or weed control at 10 ppm [10]: ≥ 90%; Rate of chlorophyll content increase (%) [11]: 18%; Rate of growth rate increase (%) [11]: 12%; Rate of leaf area increase (%) [11]: 12%; pest or weed control at 5 ppm [12]: ≥ 90%; pest or weed control at 10 ppm [12]: ≥ 90%; pest or weed control at 5 ppm (bacterial blight in rice): ≥ 90%; pest or weed control at 10 ppm (bacterial blight in rice): ≥ 90%; inhibition at 1 ppm [13]: ≥ 90%; inhibition at 5 ppm [13]: ≥ 90%; inhibition at 1 ppm [14]: ≥ 90%; inhibition at 5 ppm [14]: ≥ 90%
